One assay concerns TNFα. Kind of assay: cells. Conditions: Homo sapiens, Monocyte, LPS-stimulated human monocytes, TNFα by TR-FRET; read-out: EC50 TNF. In kind it is cell-based, human.
The next assay addresses IRAK4 enzyme (Homo sapiens (Human), UniProt Q9NWZ3). Kind of assay: biochemical. In kind it is biochemical. Conditions: IRAK4 enzyme, TR-FRET, 500 μM ATP.

SMILES strings stand for the structures.

Chain of IRAK4 enzyme (Q9NWZ3 whole entry): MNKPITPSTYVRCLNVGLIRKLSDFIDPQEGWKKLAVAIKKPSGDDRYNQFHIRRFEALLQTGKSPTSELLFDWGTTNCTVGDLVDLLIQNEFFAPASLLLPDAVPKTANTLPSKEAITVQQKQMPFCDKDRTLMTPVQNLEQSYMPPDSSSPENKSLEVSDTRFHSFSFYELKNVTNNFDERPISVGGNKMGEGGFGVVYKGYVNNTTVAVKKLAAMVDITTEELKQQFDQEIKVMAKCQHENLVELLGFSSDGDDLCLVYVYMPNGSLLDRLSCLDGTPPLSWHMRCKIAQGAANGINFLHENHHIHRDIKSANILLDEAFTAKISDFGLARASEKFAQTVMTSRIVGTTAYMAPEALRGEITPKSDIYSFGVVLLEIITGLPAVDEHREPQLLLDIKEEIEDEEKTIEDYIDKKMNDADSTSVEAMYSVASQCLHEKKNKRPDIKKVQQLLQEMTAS

For `CC(C)Cc1cccc(Nc2cc(-c3ccc4cc(C#N)cnn34)ncc2C(=O)NC[C@@H](F)C(C)(C)O)c1` [Example 838, (R)-6-(3-cyanopyrrolo[1,2-b]pyridazin-7-yl)-N-(2-fluoro-3-hydroxy-3-methylbutyl)-4-((3-isobutylphenyl)amino) nicotinamide], the EC50 in the assay with TNFα was over 10000 nM. This compound had an IC50 on IRAK4 enzyme of 57 nM.
For the compound `CCC(=O)c1cccc(Nc2cc(-c3ccc4cc(C#N)cnn34)ncc2C(=O)NC[C@@H](F)C(C)(C)O)c1` [Example 839, (R)-6-(3-cyanopyrrolo[1,2-b]pyridazin-7-yl)-N-(2-fluoro-3-hydroxy-3-methylbutyl)-4-((3-propionylphenyl)amino) nicotinamide], the EC50 with TNFα amounted to 307 nM. Further, half-maximal inhibition against IRAK4 enzyme (IC50) was put at 1 nM.
Taken in the same sequence, the figures for `COc1cnc(Nc2cc(-c3ccc4cc(C#N)cnn34)ncc2C(=O)NC[C@@H](F)C(C)(C)O)cn1` [Example 840, (R)-6-(3-cyanopyrrolo[1,2-b]pyridazin-7-yl)-N-(2-fluoro-3-hydroxy-3-methylbutyl)-4-((5-methoxypyrazin-2-yl)amino)nicotinamide] were 17 nM and under 1 nM.
With `CCOc1cnc(Nc2cc(-c3ccc4cc(C#N)cnn34)ncc2C(=O)NC[C@@H](F)C(C)(C)O)cn1` [Example 841, (R)-6-(3-cyanopyrrolo[1,2-b]pyridazin-7-yl)-4-((5-ethoxypyrazin-2-yl)amino)-N-(2-fluoro-3-hydroxy-3-methylbutyl)nicotinamide], the EC50 in the assay with TNFα stood at 29 nM. Moreover, the IC50 against IRAK4 enzyme was under 1 nM.
The matching figures for `COc1cncc(Nc2cc(-c3ccc4cc(C#N)cnn34)ncc2C(=O)NC[C@@H](F)C(C)(C)O)n1` [Example 842, (R)-6-(3-cyanopyrrolo[1,2-b]pyridazin-7-yl)-N-(2-fluoro-3-hydroxy-3-methylbutyl)-4-((6-methoxypyrazin-2-yl)amino)nicotinamide]: 42 nM and under 1 nM.
Taken in the same sequence, the figures for `CCCc1nccc(Nc2cc(-c3ccc4cc(C#N)cnn34)ncc2C(=O)NC[C@@H](F)C(C)(C)O)n1` [Example 843, (R)-6-(3-cyanopyrrolo[1,2-b]pyridazin-7-yl)-N-(2-fluoro-3-hydroxy-3-methylbutyl)-4-((2-propyl-pyrimidin-4-yl)amino)nicotinamide] were 137 nM and 1 nM.
Taken in the same sequence, the figures for `COc1nccc(Nc2cc(-c3ccc4cc(C#N)cnn34)ncc2C(=O)NC[C@@H](F)C(C)(C)O)n1` [Example 844, (R)-6-(3-cyanopyrrolo[1,2-b]pyridazin-7-yl)-N-(2-fluoro-3-hydroxy-3-methylbutyl)-4-((2-methoxypyrimidin-4-yl)amino)nicotinamide] were 70 nM and 1 nM.
On to `CCOc1cncc(Nc2cc(-c3ccc4cc(C#N)cnn34)ncc2C(=O)NC[C@@H](F)C(C)(C)O)n1` [Example 845, (R)-6-(3-cyanopyrrolo[1,2-b]pyridazin-7-yl)-4-((6-ethoxypyrazin-2-yl)amino)-N-(2-fluoro-3-hydroxy-3-methylbutyl)nicotinamide], for which the EC50 with TNFα is over 10000 nM. The compound further gave an IC50 at IRAK4 enzyme of under 1 nM.
Taken in the same sequence, the figures for `COc1cc(Nc2cc(-c3ccc4cc(C#N)cnn34)ncc2C(=O)NC[C@@H](F)C(C)(C)O)ncn1` [Example 846, (R)-6-(3-cyanopyrrolo[1,2-b]pyridazin-7-yl)-N-(2-fluoro-3-hydroxy-3-methylbutyl)-4-((6-methoxy-pyrimidin-4-yl)amino) nicotinamide] were 97 nM and 2 nM.
Taken in the same sequence, the figures for `CCOc1cc(Nc2cc(-c3ccc4cc(C#N)cnn34)ncc2C(=O)NC[C@@H](F)C(C)(C)O)ccn1` [Example 847, (R)-6-(3-cyanopyrrolo[1,2-b]pyridazin-7-yl)-4-((2-ethoxypyridin-4-yl)amino)-N-(2-fluoro-3-hydroxy-3-methylbutyl)nicotinamide] were 69 nM and under 1 nM.
As for `CCOc1nccc(Nc2cc(-c3ccc4cc(C#N)cnn34)ncc2C(=O)NC[C@@H](F)C(C)(C)O)n1` [Example 848, (R)-6-(3-cyanopyrrolo[1,2-b]pyridazin-7-yl)-4-((2-ethoxypyrimidin-4-yl)amino)-N-(2-fluoro-3-hydroxy-3-methylbutyl) nicotinamide], the EC50 in the assay on TNFα was determined as 112 nM. This compound returned an IC50 at IRAK4 enzyme of 2 nM.
The matching figures for `CCCOc1cncc(Nc2cc(-c3ccc4cc(C#N)cnn34)ncc2C(=O)NC[C@@H](F)C(C)(C)O)c1` [Example 849, (R)-6-(3-cyanopyrrolo[1,2-b]pyridazin-7-yl)-N-(2-fluoro-3-hydroxy-3-methylbutyl)-4-((5-propoxy-pyridin-3-yl)amino) nicotinamide]: 11 nM and under 1 nM.
The matching figures for `CC(C)(O)[C@H](F)CNC(=O)c1cnc(-c2ccc3cc(C#N)cnn23)cc1Nc1cnc2c(c1)OCCO2` [Example 850, (R)-6-(3-cyanopyrrolo[1,2-b]pyridazin-7-yl)-4-((2,3-dihydro-[1,4]dioxino[2,3-b]pyridin-7-yl)amino)-N-(2-fluoro-3-hydroxy-3-methylbutyl)nicotinamide]: 10 nM and under 1 nM.
The matching figures for `CC(C)Oc1cncc(Nc2cc(-c3ccc4cc(C#N)cnn34)ncc2C(=O)NC[C@@H](F)C(C)(C)O)c1` [Example 851, (R)-6-(3-cyanopyrrolo[1,2-b]pyridazin-7-yl)-N-(2-fluoro-3-hydroxy-3-methylbutyl)-4-((5-isopropoxypyridin-3-yl)amino)nicotinamide]: 12 nM and under 1 nM.
On to `COc1cc(Nc2cc(-c3ccc4cc(C#N)cnn34)ncc2C(=O)NC[C@@H](F)C(C)(C)O)cnc1OC` [Example 853, (R)-6-(3-cyanopyrrolo[1,2-b]pyridazin-7-yl)-4-((5,6-dimethoxypyridin-3-yl)amino)-N-(2-fluoro-3-hydroxy-3-methylbutyl) nicotinamide], for which, in the assay on TNFα, the EC50 was determined as 127 nM. This compound also showed an IC50 at IRAK4 enzyme of 14 nM.
Regarding `CN1CCOc2cc(Nc3cc(-c4ccc5cc(C#N)cnn45)ncc3C(=O)NC[C@@H](F)C(C)(C)O)ccc21` [Example 854, (R)-6-(3-cyanopyrrolo[1,2-b]pyridazin-7-yl)-N-(2-fluoro-3-hydroxy-3-methylbutyl)-4-((4-methyl-3,4-dihydro-2H-benzo[b] [1,4]oxazin-7-yl)amino)nicotinamide], the half-maximal effective concentration (EC50) with TNFα is 10 nM. The compound also displayed an IC50 against IRAK4 enzyme of 1 nM.
The matching figures for `CC(C)(O)[C@H](F)CNC(=O)c1cnc(-c2ccc3cc(C#N)cnn23)cc1Nc1cnc2c(c1)OCCN2` [Example 855, (R)-6-(3-cyanopyrrolo[1,2-b]pyridazin-7-yl)-4-((3,4-dihydro-2H-pyrido[3,2-b][1,4]oxazin-7-yl)amino)-N-(2-fluoro-3-hydroxy-3-methylbutyl)nicotinamide]: 9 nM and under 1 nM.
Taken in the same sequence, the figures for `CN1CCOc2cc(Nc3cc(-c4ccc5cc(C#N)cnn45)ncc3C(=O)NC[C@@H](F)C(C)(C)O)cnc21` [Example 856, (R)-6-(3-cyanopyrrolo[1,2-b]pyridazin-7-yl)-N-(2-fluoro-3-hydroxy-3-methylbutyl)-4-((4-methyl-3,4-dihydro-2H-pyrido[3,2-b][1,4]oxazin-7-yl)amino)nicotinamide] were 24 nM and 1 nM.

These data come from patent US10336762B2 (priority 2017, dated 2019).
